Data published in patent publication US10744128B2, “6-(5-membered heteroaryl)isoquinolin-3-yl-(5-membered heteroaryl) carboxamides and preparation and use thereof” (Samumed, LLC, priority 2017, dated 2020).

Assays:
[1] = tested on: primary human fibroblasts derived from IPF patients (LL29 cells), α-smooth muscle actin; test: Inhibition of fibrotic process: αSMA in TGF-β1 treated LL29 fibroblasts; format: cell-based; conditions: Homo sapiens, Fibroblast, 96 h; LL29 cells, TGF-β1 20 ng/mL, 4 days, % cells positive for αSMA
Summary of the method: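 LL29 fibroblasts from IPF patients, in F12 medium with 1% FBS, treated with TGF-β1 plus compound; TGF-β1 with DMSO as positive control, DMSO alone as negative control. After 4 days' incubation, SYTOX green nucleic acid stain added at 1 μM final, 30 min at room temperature.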

recombinant GSK3β kinase = recombinant GSK3β kinase (Homo sapiens (Human), UniProt P49841); test: GSK3β kinase assay (Ser/Thr 09 peptide Z-lyte, FRET); format: biochemical; conditions: GSK3β kinase, 46 μM ATP, one hour; method calls values IC50
[2] = tested on: SW480 colon carcinoma cells; test: Cell viability assay (CellTiter-Glo) in SW480 cells; format: cell-based, human; conditions: Homo sapiens, 96 h, four days
IL-6 = IL-6 inhibition in LPS-stimulated human peripheral blood mononuclear cells (HTRF); format: cell-based; conditions: Homo sapiens, PBMC; for EC50: huPBMCs, LPS 50 ng/mL, 22 hours, IL-6 HTRF
Summary of the method: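 Fresh human PBMCs at 1×10e6 cells/mL in 1% FBS-RPMI were pretreated with compound for 2 h, then stimulated with 50 ng/mL E. coli 0111:B4 LPS for a further 22 h at 37 °C. IL-6 was measured by HTRF (665/620 nm ratio). Values were normalized to DMSO and fitted 4-parameter for EC50.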

[3] = biological target: recombinant DYRK1A kinase (Homo sapiens (Human), UniProt Q13627); test: DYRK1A kinase assay (Ser/Thr 18 peptide Z-lyte, FRET); conditions: DYRK1A kinase, 30 μM ATP, one hour; method calls values IC50
Description: Each compound was dissolved in DMSO as a 10 mM stock and used to prepare compound source plates.
This is a non-radioactive assay using fluorescence resonance energy transfer (FRET) between coumarin and fluorescein to detect kinase activity which is represented as a ratio of coumarin emission/fluorescein emission.
The mixture was allowed to incubate with the representative compounds for one hour at room temperature. All reactions were performed in duplicate. Unphosphorylated (“0% Control”) and phosphorylated (“100% control”) forms of Ser/Thr 18 served as control reactions. Additionally, an 11-point dose-response curve of Staurosporine (1 uM top) was run to serve as a positive compound control.
After incubation, Development Reagent A was diluted in Development Buffer then added to the reaction and allowed to further incubate for one hour at room temperature.
Dose-response curves were generated and inhibitory concentration (IC50) values were calculated using non-linear regression curve fit in the Dotmatics' Studies Software (Bishops Stortford, UK).

[4] = tested on: Tau phosphorylation at Ser396 (pSer396); test: Tau phosphorylation (pSer396) assay in SH-SY5Y cells; format: cell-based, human; conditions: Homo sapiens; SH-SY5Y cells, overnight (16-18 h), pSer396 Tau ELISA; read-out: EC50
Description: Two days before treatment, cells were seeded onto 96 well plates at 5×10^4 cells/well.
The above synthesized compounds were screened using the cell assay procedure to assess decrease Tau phosphorylation at Ser396 (pSer396) described below.
Cells were lysed with RIPA buffer complemented with phosphatase and protease inhibitors then lysates were spun down at 12,000 g for 10 min to remove any cellular debris.

[5] = tested on: Wnt-responsive promoter (Sp5-Luc reporter) in SW480 colon carcinoma cells; test: Sp5-Luc reporter gene screening assay for Wnt activity in SW480 cells; format: cell-based, human; conditions: Homo sapiens, 36 to 48 hours, luminescence
Summary of the method: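 SW480 cells stably carrying a luciferase reporter under an Sp5 promoter with eight TCF/LEF sites, plated at 4,000 cells/well in DMEM with 1% FBS and incubated 36 to 48 hours at 37° C. Luminescence normalized to DMSO-only cells; EC50 fitted by four-parameter nonlinear regression.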

recombinant GSK3β kinase, sequence (P49841 whole entry): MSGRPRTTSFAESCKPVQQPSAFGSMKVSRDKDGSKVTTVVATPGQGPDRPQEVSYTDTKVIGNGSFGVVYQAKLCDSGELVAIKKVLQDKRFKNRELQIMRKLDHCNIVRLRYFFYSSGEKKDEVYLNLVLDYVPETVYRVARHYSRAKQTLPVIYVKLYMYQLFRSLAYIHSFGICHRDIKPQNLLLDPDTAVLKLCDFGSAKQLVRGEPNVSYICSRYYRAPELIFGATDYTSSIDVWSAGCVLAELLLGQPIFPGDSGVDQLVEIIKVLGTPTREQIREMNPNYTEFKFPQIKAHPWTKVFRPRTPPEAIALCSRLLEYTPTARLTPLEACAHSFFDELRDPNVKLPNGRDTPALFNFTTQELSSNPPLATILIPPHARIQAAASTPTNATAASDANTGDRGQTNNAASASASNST

**Q.** For `Cn1cc(-c2ccc3cnc(NC(=O)c4cnn(C5CCNCC5)c4)cc3c2)cn1` [Compound 2, N-(6-(1-methyl-1H-pyrazol-4-yl)isoquinolin-3-yl)-1-(piperidin-4-yl)-1H-pyrazole-4-carboxamide], which EC50 [1] is on record?
**A.** 93 nM

**Q.** And the EC50 (recombinant GSK3β kinase)?
**A.** 1040 nM

**Q.** What about the EC50 [2] of the same molecule?
**A.** 38 nM

**Q.** And the EC50 (IL-6)?
**A.** 114 nM

**Q.** What about the EC50 [3] of the same molecule?
**A.** 2 nM

**Q.** And the EC50 [4]?
**A.** 99 nM

**Q.** What about the EC50 [5] of the same molecule?
**A.** 27 nM

**Q.** `CC(C)N1CCC(n2cc(C(=O)Nc3cc4cc(-c5cnn(C)c5)ccc4cn3)cn2)CC1` [Compound 8, 1-(1-isopropylpiperidin-4-yl)-N-(6-(1-methyl-1H-pyrazol-4-yl)isoquinolin-3-yl)-1H-pyrazole-4-carboxamide] was tested. Which EC50 [1] did it give?
**A.** 72 nM

**Q.** What about the EC50 (recombinant GSK3β kinase) of the same molecule?
**A.** 780 nM

**Q.** What about the EC50 [2] of the same molecule?
**A.** 59 nM

**Q.** What about the EC50 (IL-6) of the same molecule?
**A.** 504 nM

**Q.** What about the EC50 [3] of the same molecule?
**A.** 1 nM

**Q.** What about the EC50 [4] of the same molecule?
**A.** 27 nM

**Q.** And the EC50 [5]?
**A.** 11 nM

**Q.** `CC(C)OC(=O)N1CCC(n2cc(C(=O)Nc3cc4cc(-c5cnn(C)c5)ccc4cn3)cn2)CC1` [Compound 10, isopropyl 4-(4-((6-(1-methyl-1H-pyrazol-4-yl)isoquinolin-3-yl)carbamoyl)-1H-pyrazol-1-yl)piperidine-1-carboxylate] was tested. Which EC50 [1] did it give?
**A.** 62 nM

**Q.** And the EC50 (recombinant GSK3β kinase)?
**A.** 4180 nM

**Q.** What about the EC50 [2] of the same molecule?
**A.** 105 nM

**Q.** What about the EC50 (IL-6) of the same molecule?
**A.** 277 nM

**Q.** What about the EC50 [3] of the same molecule?
**A.** 3 nM

**Q.** What about the EC50 [4] of the same molecule?
**A.** 64 nM

**Q.** What about the EC50 [5] of the same molecule?
**A.** 55 nM

**Q.** For `Cn1cc(-c2ccc3cnc(NC(=O)c4csc(C5CCN(CCF)CC5)n4)cc3c2)cn1` [Compound 27, 2-(1-(2-Fluoroethyl)piperidin-4-yl)-N-(6-(1-methyl-1H-pyrazol-4-yl)isoquinolin-3-yl)thiazole-4-carboxamide], which EC50 [1] is on record?
**A.** 2520 nM

**Q.** And the EC50 (recombinant GSK3β kinase)?
**A.** 3600 nM

**Q.** And the EC50 [2]?
**A.** 3650 nM

**Q.** What about the EC50 (IL-6) of the same molecule?
**A.** > 10000 nM

**Q.** What about the inhibition at 10 µM (IL-6; read-out: percent inhibition at 10 μM) of the same molecule?
**A.** 34.5%

**Q.** What about the EC50 [3] of the same molecule?
**A.** 14 nM

**Q.** And the EC50 [4]?
**A.** > 10000 nM

**Q.** What about the EC50 [5] of the same molecule?
**A.** 300 nM

**Q.** How did the EC50 [1] turn out when `Cc1ncc(C(=O)Nc2cc3cc(-c4cnn(C5CCN(C)CC5)c4)ccc3cn2)s1` [Compound 28, 2-Methyl-N-(6-(1-(1-methylpiperidin-4-yl)-1H-pyrazol-4-yl)isoquinolin-3-yl)thiazole-5-carboxamide] was run?
**A.** 381 nM

**Q.** What about the EC50 (recombinant GSK3β kinase) of the same molecule?
**A.** > 10000 nM

**Q.** What about the EC50 [2] of the same molecule?
**A.** 340 nM

**Q.** And the EC50 (IL-6)?
**A.** 9980 nM

**Q.** What about the EC50 [3] of the same molecule?
**A.** 24 nM

**Q.** What about the EC50 [4] of the same molecule?
**A.** 2100 nM

**Q.** What about the EC50 [5] of the same molecule?
**A.** 1160 nM

**Q.** `Cc1ncc(C(=O)Nc2cc3cc(-c4cnc(C)n4C)ccc3cn2)s1` [Compound 62, N-(6-(1,2-Dimethyl-1H-imidazol-5-yl)isoquinolin-3-yl)-2-methylthiazole-5-carboxamide] was tested. Which EC50 [1] did it give?
**A.** 644 nM

**Q.** And the EC50 (recombinant GSK3β kinase)?
**A.** 450 nM

**Q.** And the EC50 [2]?
**A.** 23 nM

**Q.** And the EC50 (IL-6)?
**A.** 2760 nM

**Q.** What about the EC50 [3] of the same molecule?
**A.** 2 nM

**Q.** And the EC50 [4]?
**A.** 193 nM

**Q.** And the EC50 [5]?
**A.** 110 nM

**Q.** With `Cc1ncc(-c2ccc3cnc(NC(=O)Cn4ccnc4)cc3c2)o1` [Compound 64, 2-(1H-imidazol-1-yl)-N-(6-(2-methyloxazol-5-yl)isoquinolin-3-yl)acetamide] as the molecule, how does the EC50 [1] read?
**A.** 187 nM

**Q.** And the EC50 (recombinant GSK3β kinase)?
**A.** 9 nM

**Q.** What about the EC50 [2] of the same molecule?
**A.** 836 nM

**Q.** And the EC50 (IL-6)?
**A.** 427 nM

**Q.** And the EC50 [3]?
**A.** 4 nM

**Q.** What about the EC50 [4] of the same molecule?
**A.** 85 nM

**Q.** And the EC50 [5]?
**A.** 1150 nM
